Assay results: paper PMC13576449, “Small-Molecule Activators of PRMT1: Discovery, SAR Analyses, and Proapoptotic Effects in Pancreatic Cancer Cells” (Journal of Medicinal Chemistry, 2026)

Target: T1, FLAG-tagged PRMT1 (Rattus norvegicus, UniProt Q63009)
T1 construct: Full-length FLAG-tagged PRMT protein; made in house; host or cells: Sf9 insect cells (baculovirus)
Assay: Fluorescence-based in vitro PRMT assay (F-PRMT assay), PRMT1
Type: biochemical
Details: 100 μM compound

T1 sequence (Q63009 whole entry): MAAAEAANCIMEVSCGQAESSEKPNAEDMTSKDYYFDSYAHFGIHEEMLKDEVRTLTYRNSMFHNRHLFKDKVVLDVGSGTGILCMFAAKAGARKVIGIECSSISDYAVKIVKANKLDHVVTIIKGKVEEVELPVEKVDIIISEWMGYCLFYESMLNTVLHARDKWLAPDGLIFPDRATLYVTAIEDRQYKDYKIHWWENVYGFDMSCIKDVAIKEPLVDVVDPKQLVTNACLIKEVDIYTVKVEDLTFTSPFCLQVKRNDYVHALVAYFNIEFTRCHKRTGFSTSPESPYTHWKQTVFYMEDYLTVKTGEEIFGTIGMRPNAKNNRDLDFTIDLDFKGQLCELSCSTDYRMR

| SMILES | effect on PRMT1 activity (in words) |
| --- | --- |
| CN(C)c1ccccc1CN/C=C1\C(=O)NC(=O)c2ccccc21 [ICTR-052] | no effect or a modest activating effect |
| C[N+](C)(C)Cc1cccc(CN/C=C2\C(=O)NC(=O)c3ccccc32)c1.[I-] [ICTR-108] | no effect or a modest activating effect |
| O=C1NC(=O)c2ccccc2C1=CNc1ccccc1Cn1cccc1 [ICTR-036] | no significant or minimal inhibitory activity |
| Nc1ccccc1N/C=C1\C(=O)NC(=O)c2ccccc21 [ICTR-019] | no effect |
| CN(C)CCCN/C=C1\C(=O)NC(=O)c2ccccc21 [TR-018, (Z)-4-({[3-(Dimethylamino)propyl]amino}methylene)isoquinoline-1,3(2H,4H)-dione] | activated PRMT1 in a significant manner, albeit to a considerably lesser extent than TR-07 |
| CCN(CC)c1ccccc1N/C=C1\C(=O)NC(=O)c2ccccc21 [ICTR-060] | no effect |
| CCN(CC)Cc1ccccc1-c1ccc2[nH]c(=O)c3ccccc3c2c1 [ICTR-094] | significantly lower activation of PRMT1 compared to TR-07 |
| O=C1NC(=O)c2ccccc2C1=CNCc1cccnc1 [TR-032] | activated PRMT1 in a significant manner, albeit to a considerably lesser extent than TR-07 |
| O=C1NC(=O)c2ccccc2C1=CNc1cccc(CN2CCOCC2)c1 [TR-038] | strong inhibitory effect |
| CC(C)Cc1ccc(N/C=C2\C(=O)NC(=O)c3ccccc32)cc1 [ICTR-076] | no effect |
| CN(C)Cc1ccccc1CN/C=C1\C(=O)NC(=O)c2ccccc21 [ICTR-063] | reduced activating effect |
| O=C1NC(=O)c2ccccc2C1=CNc1cccnc1 [TR-031] | no significant effect |
| CN(C)Cc1ccccc1N/C=C1\C(=O)NC(=O)c2ccccc21 [TR-022] | equal |
| O=C1NC(=O)c2ccccc2C1=CNc1ccccc1Cn1cncn1 [ICTR-042] | no significant or minimal inhibitory activity |
| O=C1NC(=O)c2ccccc2/C1=C/Nc1ccccn1 [TR-030, (Z)-4-[(Pyridin-2-ylamino)methylene]isoquinoline-1,3(2H,4H)-dione] | no significant effect |
| CCN(CC)Cc1ccccc1CN/C=C1\C(=O)NC(=O)c2ccccc21 [ICTR-119] | no significant effect |
| CCN(CC)Cc1cccc(-c2ccc3[nH]c(=O)c4ccccc4c3c2)c1 [ICTR-096] | significantly increased PRMT1 activity |
| CN(C)c1ccccc1N/C=C1\C(=O)NC(=O)c2ccccc21 [ICTR-015] | no effect |

Same assay, conditions: 100 μM compound, increase over solvent-treated activity; read-out: enhancement (increase) of PRMT1 enzymatic activity

| SMILES | activation at 100 µM [%] |
| --- | --- |
| CN(C)Cc1ccc(N/C=C2\C(=O)NC(=O)c3ccccc32)cc1 [TR-021] | ≥ 60 |
| CCN(CC)Cc1cccc(-c2ccc3[nH]c(=O)c4ccccc4c3c2)c1 [ICTR-096] | ≥ 60 |

Target: T2, FLAG-tagged PRMT6 (Homo sapiens, UniProt Q96LA8)
T2 construct: The complete ORFs of human PRMT3 and PRMT6 were inserted; made in house; host or cells: Sf9 insect cells (baculovirus)
T2 sequence (Q96LA8 whole entry): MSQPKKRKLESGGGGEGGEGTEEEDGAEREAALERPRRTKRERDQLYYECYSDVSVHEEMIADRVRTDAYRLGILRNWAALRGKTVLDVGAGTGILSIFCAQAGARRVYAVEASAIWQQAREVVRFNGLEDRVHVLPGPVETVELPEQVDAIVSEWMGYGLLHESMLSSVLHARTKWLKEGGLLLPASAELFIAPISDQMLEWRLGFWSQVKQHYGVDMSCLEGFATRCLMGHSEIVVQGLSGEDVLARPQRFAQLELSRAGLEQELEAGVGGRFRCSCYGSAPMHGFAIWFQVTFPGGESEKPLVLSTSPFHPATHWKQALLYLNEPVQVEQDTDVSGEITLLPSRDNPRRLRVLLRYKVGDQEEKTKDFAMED
Assay: Fluorescence-based in vitro PRMT assay (F-PRMT assay), PRMT6
Type: biochemical
Details: Table S2; 100 µM compound, vs solvent control = 100%, n=3; racemates used
Excerpt: (§1) To evaluate the effects of the selected candidate molecules on the catalytic activity of type I enzymes, we employed a quantitative fluorescence-based in vitro PRMT activity (F-PRMT) assay using recombinant FLAG-tagged PRMT proteins expressed and affinity-purified from baculovirus-infected Sf9 cells (SI Figure S1, SI Figure S2A).
(§2) Human cell lines (PaTu8988T, PANC-1) were obtained from ATCC (American Type Culture Collection) and cultured in DMEM supplemented with 10% fetal calf serum (FCS, Gibco/BRL), 1% penicillin/streptomycin at 37 °C and 5% CO2. […] For PRMT1 inhibition, cells were treated with type I PRMT inhibitor MS023 hydrochloride (Biomol). For induction of genotoxic stress, cells were treated with gemcitabine (LC Laboratories). […] The following plasmids were used: pFASTBAC-FLAG-rat PRMT1, pFASTBAC-FLAG-mouse PRMT4, and pGEX-GAR. The complete ORFs of human PRMT3 and PRMT6 were inserted into the pFASTBAC HT-3xFLAG B vector via BamHI/HindIII and BamHI/XhoI sites, respectively.
(§3) For PRMT protein expression in insect cells, recombinant baculovirus (bacmid) was generated using the Bac-to-Bac baculovirus system (Invitrogen). Sf9 cells were transfected with bacmid DNA using X-tremeGENE HP DNA transfection reagent (Sigma-Aldrich) according to the manufacturer's instructions. After 3–5 days, supernatants were collected, filtered, and used to infect Sf9 cells to amplify the virus. After 2 rounds of virus amplification and estimation of the final P3 virus titer, the P3 virus (2–5 μL/10^6 cells) was applied for large-scale infection of 200 × 10^6 Sf9 cells in suspension culture at a density of 1 × 10^6 cells/mL. Cells were harvested 5–6 days post-infection by centrifugation at 500 g for 5 min at room temperature. Protein purification from baculovirus-infected Sf9 cells was performed as previously described. , Cells were lysed in BC buffer (20 mM HEPES pH 7.9, 250 mM NaCl, 10% (v/v) glycerin, 0.4 mM EDTA, 1 mM DTT) containing a protease inhibitor cocktail (Roche) by 3 freeze-thaw cycles. After centrifugation at 11,000 rpm (Sorval SS34 rotor) and 4 °C for 1 h, the supernatant (whole cell protein extract) was incubated with anti-FLAG M2 Affinity Gel (Cytiva) at 4 °C and under agitation for 4 h. Subsequently, beads were washed in BC buffer containing various NaCl concentrations (once in BC with 1 M NaCl, twice in BC with 500 mM NaCl, twice in BC with 250 mM NaCl and twice in BC with 100 mM NaCl). FLAG-tagged proteins were either maintained bead-bound as a 50% (v/v) slurry in BC buffer with 100 mM NaCl and stored at −80 °C or were eluted in the appropriate elution buffer (depending on the subsequent assay) containing 0.25 mg/mL 3xFLAG peptides (Sigma-Aldrich) at 4 °C for 30–45 min. To remove the FLAG-peptides from the eluate, dialysis was performed in elution buffer containing 10% (v/v) glycerol at 4 °C for 4–6 h using Slide-A-Lyzer Dialysis Devices (Thermo Fisher Scientific) according to the manufacturer’s recommendations.
(§4) In the first step, the fluorogenic substrate Nα-Benzoyl-L-arginine-7-amido-4-methylcoumarin (Bz-Arg-AMC, Sigma-Aldrich) undergoes methylation by PRMTs upon the addition of the cofactor SAM. In the second reaction step, trypsin cleaves the nonmethylated substrate, leading to the generation of the 7-amino-4-methylcoumarin product, which can be quantified by subsequent fluorescence measurement (excitation: 355 nm, emission: 460 nm). The first reaction was conducted with bead-bound PRMTs at a total volume of 100 μL. Each condition was performed as a technical triplicate to determine the mean and the standard deviation. […] For the negative controls, SAM was substituted with assay buffer. The incubation was continued at 37 °C and under agitation (1,000 rpm) for a duration of 2 h.

| SMILES | Experimental result (PRMT6) |
| --- | --- |
| CNCCNC(=O)NC[C@@]12CNC[C@@]1(C(F)(F)F)C2 (racemic) [Compound K600JK013] | n.e. (did not significantly affect the catalytic activity of the intended PRMT (less than ±6% change or not significant p-value), are marked with n.e. (no effect)) |
| c1ccc2oc(C3CCN(Cc4c[nH]cn4)CC3)nc2c1 [Compound K002FT015] | n.e. (did not significantly affect the catalytic activity of the intended PRMT (less than ±6% change or not significant p-value), are marked with n.e. (no effect)) |
| COCC1(CNCc2nnc([C@H]3C[C@H](N)C3)n2C2CC2)CC1 [Compound K002FT002] | n.e. (did not significantly affect the catalytic activity of the intended PRMT (less than ±6% change or not significant p-value), are marked with n.e. (no effect)) |

Target: T3, FLAG-tagged PRMT4 (Mus musculus, UniProt Q9WVG6)
T3 construct: Full-length FLAG-tagged PRMT protein; made in house; host or cells: Sf9 insect cells (baculovirus)
T3 sequence (Q9WVG6 1-608): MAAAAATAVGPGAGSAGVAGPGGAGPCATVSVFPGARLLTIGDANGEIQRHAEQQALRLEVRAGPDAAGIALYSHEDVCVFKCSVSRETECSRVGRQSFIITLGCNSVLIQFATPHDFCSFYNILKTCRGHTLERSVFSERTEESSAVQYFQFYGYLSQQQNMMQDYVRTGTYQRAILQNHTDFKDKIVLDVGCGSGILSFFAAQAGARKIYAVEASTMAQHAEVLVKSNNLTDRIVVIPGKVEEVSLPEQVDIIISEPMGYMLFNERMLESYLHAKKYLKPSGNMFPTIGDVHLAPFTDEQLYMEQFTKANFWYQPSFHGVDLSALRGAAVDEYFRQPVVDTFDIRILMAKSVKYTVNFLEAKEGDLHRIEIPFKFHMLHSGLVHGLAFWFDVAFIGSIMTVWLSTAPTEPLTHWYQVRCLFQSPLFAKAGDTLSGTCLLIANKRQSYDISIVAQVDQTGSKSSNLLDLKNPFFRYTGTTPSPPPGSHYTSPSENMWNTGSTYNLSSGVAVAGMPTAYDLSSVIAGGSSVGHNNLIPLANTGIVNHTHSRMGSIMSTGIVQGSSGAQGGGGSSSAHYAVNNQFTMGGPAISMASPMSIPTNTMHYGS
Assay: Fluorescence-based in vitro PRMT assay (F-PRMT assay), PRMT4
Type: biochemical
Details: Table S2; 100 µM compound, vs solvent control = 100%, n=3; racemates used
Excerpt: as §1, §2, §3, §4

| SMILES | Experimental result (PRMT4) |
| --- | --- |
| NCCCNCc1sc2ccccc2c1Cl [Compound K001FT010] | n.e. (did not significantly affect the catalytic activity of the intended PRMT (less than ±6% change or not significant p-value), are marked with n.e. (no effect)) |
| CNCCCc1ncc(-c2ccccc2Br)[nH]1 [Compound K001FT002] | n.e. (did not significantly affect the catalytic activity of the intended PRMT (less than ±6% change or not significant p-value), are marked with n.e. (no effect)) |
| NCCc1cn2cccc(OCc3ccccc3)c2n1 [Compound K001FT005] | n.e. (did not significantly affect the catalytic activity of the intended PRMT (less than ±6% change or not significant p-value), are marked with n.e. (no effect)) |
| CC[C@H](NC(=O)c1cccc(Cn2cccn2)c1)c1nc(C)c[nH]1 (racemic) [Compound K001FT009] | n.e. (did not significantly affect the catalytic activity of the intended PRMT (less than ±6% change or not significant p-value), are marked with n.e. (no effect)) |
| CS(=O)(=O)c1ccc(C(=O)NCc2nc3cc(F)ccc3[nH]2)cc1 [Compound K001JS011] | n.e. (did not significantly affect the catalytic activity of the intended PRMT (less than ±6% change or not significant p-value), are marked with n.e. (no effect)) |
| COc1cccc(NC(=O)COC(=O)c2cc3ccccc3[nH]2)c1 [Compound K001JS005] | n.e. (did not significantly affect the catalytic activity of the intended PRMT (less than ±6% change or not significant p-value), are marked with n.e. (no effect)) |
| COC(=O)COc1ccc(NC(=O)C23CC(CN2)C3)cc1 [Compound K400JK003] | n.e. (did not significantly affect the catalytic activity of the intended PRMT (less than ±6% change or not significant p-value), are marked with n.e. (no effect)) |
| CNCCCNCc1ccccc1Br [Compound K001FT011] | n.e. (did not significantly affect the catalytic activity of the intended PRMT (less than ±6% change or not significant p-value), are marked with n.e. (no effect)) |

Same assay, conditions: Table S2; 100 µM compound; mean % difference vs solvent control (100%), n=3

| SMILES | Efficacy ±∆% (PRMT4) |
| --- | --- |
| CCS(=O)(=O)Nc1ccc(NC(=O)C23CC(CN2)C3)cc1 [Compound K400JK004] | +8% |
| NCCNC[C@@H](O)COc1ccc(Cl)c(Cl)c1 (racemic) [Compound K001FT003] | -50% |
| CC1(C(=O)Nc2ccc3nc(CN)[nH]c3c2)CCC1 [Compound K400JK011] | -10% |
